Experiments:
[1] = system: strain RS112 (his3 deletion alleles); experiment: SCC (sister chromatid conversion) intrachromosomal recombination system, deletion alleles of his3; format: cell-based, Saccharomyces cerevisiae; details: strain RS112
Excerpt: In the most preferred embodiment it is preferable to grow the cells in a medium which selects against the occurrence of the genome rearrangement to keep the control values as low as possible. In the embodiment described in FIG. 1 it is shown that the LEU2 gene of construct 10 is lost after the genome rearrangement which results in construct 22. Therefore cells containing construct 10, before the rearrangement are able to grow in the absence of leucine in the medium, but cells containing construct 22, after the genome rearrangement are not able to grow in the absence of leucine. After the genome rearrangement cells containing construct 22 are able to grow in the absence of histidine in the medium, but cells containing construct 10 before the genome rearrangement are not able to grow in the absence of histidine. Therefore the selection scheme which was used for Example 3 involves growth of the yeast culture in medium lacking leucine but containing histidine before and during the exposure to the potential carcinogens or other test agents. After the exposure the cells which have undergone genome rearrangement are selected on medium lacking histidine but containing leucine.
(§1) It is preferred that, when the cells are to be grown in the presence of the agent, logarithmic phase cultures are used. In one embodiment, for each of the test strains, a cell suspension of 2×10^6 cells per milliliter-LEU medium be prepared from a logarithmic phase culture pregrown in liquid-LEU medium. The whole mix is aliquoted into portions of 5 milliliter into disposable plastic tubes in the presence of the agent to be tested, the tubes are sealed and shaken continuously for 17 hours.
After the yeast cells have been exposed to both the agent to be tested and the selection medium under the conditions of the test and have been incubated for some time period of about more than one day preferably at 30 degrees Celsius or any other temperature which allows growth of the yeast cells used, the number of colonies formed by cells which have undergone genome rearrangement are counted and compared with the number of colonies of yeast cells identical in substantially every respect with the exception of not having been exposed to the suspected carcinogenic agent. The rates of genome rearrangement for both the control and experimental samples are then compared.
Plasmids were constructed as substrates to study intrachromosomal recombination; see an earlier part of the specification and Example 1. The plasmids pRS6 (FIG. 7, construct 108) and pRS11 (FIG. 9, construct 118) both contained an internal fragment of the HIS3 gene as well as one selectable marker (LEU2). pRS11 in addition contained the 2 μm origin of replication to select for the presence of the plasmid after plasmid excision. pRS11FRT-had the FLP recombination site disrupted (see Example 1). Yeast strains RSY6 containing construct 10, RSY11 containing construct 118 and RSY11FRT- (see Example 1) were used. They contained the respective pRS plasmids integrated into the HIS3 gene of strain S35/2-10C giving rise to disruptions of the HIS3 gene construct 10 or analogs to it (FIG. 10). The two resulting his3 deletion alleles (FIG. 10) shared about 400 basepairs of homology and thus could interact with each other by homologous recombination. Reversion of his- to HIS+ occurred at a frequency of about 4×10^-4 in all three strains. All of 100 tested HIS+ revertants of strain RSY6 were leu-. Because of this observation strains used for recombination studies were always pregrown on -LEU medium to prevent growth of HIS+ revertants. Therefore the frequency of HIS+ revertants is a measure of the recombination rate.
The strain used in this example was RS112 which was obtained by crossing strain RSY6 with strain 428. RSY6 contains the SCC system and was deposited at November 30 under "ATCC designation number 20871" with the American Type Culture Collection of 12301 Parklawn Drive, Rockville, Md. 20852. […]

[2] = system: strain RS112 (heteroalleles ade2-40 and ade2-101); experiment: ICC (interchromosomal gene conversion) between heteroalleles ade2-40 and ade2-101; format: cell-based, Saccharomyces cerevisiae; details: strain RS112
Description: as §1
(§2) The strain used in this example was RS112 which was obtained by crossing strain RSY6 with strain 428. RSY6 contains the SCC system and was deposited at November 30 under "ATCC designation number 20871" with the American Type Culture Collection of 12301 Parklawn Drive, Rockville, Md. 20852. Strain 428 was obtained from M. Snyder, Department of Biology, at Yale University, New Haven, Conn. and was used because it contains the mutation his3Δ-200, the construction of which has been described in an article by Struhl entitled "Naturally occurring poly(dA-dT) sequences are upstream promoter elements of constitutive transcription in yeast, published in Proc. Natl. Acad. Sci. USA 82 on pages 8419-8423. Strains containing the his3Δ-200 mutation are readily available to those skilled in the art.
Strain RS112 has the following genotype: [drawing 2]
Values for the intrachromosomal recombination system between deletion alleles of his3 are designated as SCC. Also strain RS112 contained heteroallelic mutations in ade2 so that the frequency of interchromosomal gene conversion (ICC) between heteroalleles in a diploid was determined. ICC was measured as recombination between the heteroalleles ade2-40 and ade2-101 by selecting for ADE+. Values obtained are given to compare the performance of the two systems.
The frequencies for ICC are given in events per 10^5 survivals, and the frequencies for SCC are given in events per 10^4 survivals. It has to be noted that for sister chromatid recombination in mammalian cells the increase even with potent carcinogens is usually less than ten fold and also slight increases have been taken as positive results. For instance an increase in frequency of two fold has been taken to be significant; see a publication by Rudiger et al. entitled "Metabolites of diethylstilbestrol induce sister chromatid exchange in human cultured fibroblasts." published in Nature 281:392-394).

[3] = survival of yeast exposed to agent; format: cell-based, Saccharomyces cerevisiae
Excerpt: It is preferred to conduct a preliminary experiment to determine those concentrations of the agent to be tested which should be evaluated in the main experiment. Yeast cells are exposed to a wide range of concentrations of the agent to be tested to determine its cytotoxicity.
as §1, §2

[4] = system: Salmonella typhimurium; details: cited from earlier work
[5] = system: mammalian cells; details: cited from earlier work
[6] = system: mammalian cells; details: cited from earlier work; remark: listed apart in the source
[7] = system: rat liver; details: in vivo; cited from earlier work
[8] = system: rats; details: cited from earlier work
[9] = system: mice; details: cited from earlier work
[10] = in vivo; cited from earlier work
[11] = system: strain RS112; experiment: plating efficiency after MBC treatment; format: cell-based, Saccharomyces cerevisiae; details: 100 μg/ml, 5 to 7 hours at 30° C.
Description: (§3) The applicant has reproduced the method published in the aforementioned paper by Fabre et al. Mol. Gen. Genet. 195:139143 (1984) to obtain mostly G1 (stationary) and G2 arrested cells by using Methyl-Benzimidazole-Carbamate (MBC) to arrest the cells in G2 : Strain used for the experiment was RS112, the genotype of which is given below: [drawing 1] Media were the same as described at another part of the specification. Stationary cells were obtained by incubation of cells in liquid YPD at 30° C. for 48 hours. Stationary cells were more than 85% in G1. To obtain cells arrested in G2 the cells were incubated in YPD containing the fungicide methyl benzimidazol-2-yl carbamate (MBC) (stock solution 10 mg/ml) at a concentration of 100 μg/ml at a cell density of 10^7 cells/ml for 5 to 7 hours at 30° C. […] Log phase cells were obtained by incubation of the cells in YEPD for the same time period without MBC. Log phase cultures contained cells in all stages. The cells were irradiated with UV light at a dose of 0-40 J/m2 and cells were held at G1, log or G2 for another two hours to allow repair of the damage in the respective stage. The cells were than collected by centrifugation and washed twice, plated for survivals onto SC medium, for determination of interchromosomal conversion events onto SC-Ade and for determination of SCC onto SC-His.

[12] = system: strain RS112; experiment: G2 arrest of yeast cells by MBC; format: cell-based, Saccharomyces cerevisiae; details: 100 μg/ml, 5 to 7 hours at 30° C.
Description: as §3

Question: Which results are given for `C=CCc1ccc2c(c1)OCO2` [Safrole]?
Answer: SCC/10^4 cells ([1]; 0.05 %): 0.94 /10^4 cells; SCC/10^4 cells ([1]; 0.1 %): 1.22 /10^4 cells; SCC/10^4 cells ([1]; 0.2 %): 2.4 /10^4 cells; SCC/10^4 cells ([1]; 0.4 %): 14.1 /10^4 cells; ICC/10^5 cells ([2]; 0.05 %): 1.07 /10^5 cells; ICC/10^5 cells ([2]; 0.1 %): 0.59 /10^5 cells; ICC/10^5 cells ([2]; 0.2 %): 0.82 /10^5 cells; ICC/10^5 cells ([2]; 0.4 %): 1.36 /10^5 cells; viability at 17 h ([3]; yeast strain rs112, 0.05 %): 112%; viability at 17 h ([3]; yeast strain rs112, 0.1 %): 95%; viability at 17 h ([3]; yeast strain rs112, 0.2 %): 76%; viability at 17 h ([3]; yeast strain rs112, 0.4 %): 4.6%; Ames Assay result [4]: negative; SCE assay result [5]: negative; chromosomal aberration assay result [6]: negative; rat liver foci assay result [7]: negative; carcinogenicity [8]: produces liver cancer in mice and rats; carcinogenicity [9]: produces liver cancer in mice and rats; carcinogenicity [10]: known carcinogens

Question: What does the source list for `COC(=O)Nc1nc2ccccc2[nH]1` [MBC, methyl benzimidazol-2-yl carbamate]?
Answer: plating efficiency [11]: never decreased; cells showing characteristic G2 arrest [12]: more than 90%

Source: US4997757A, “Process for detecting potential carcinogens” (GeneBioMed, Inc., priority 1988, dated 1991)
